Laboratory results: PubChem BioAssay AID256 (DTP/NCI, 2004)
Where “and” joins values, the source holds several entries; their conditions need not be identical. Equal entries are not always repeated. Inconclusive results and toxic doses are left out.

Test system: CD2F1 mice, L1210 leukemia ip, survival T/C
Experiment: NCI In Vivo Anticancer Drug Screen. Data for tumor model L1210 Leukemia (intraperitoneal) in CD2F1 (CDF1) mice
Conditions: endpoint: median survival time, higher = longer survival
Outline: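 Vehicle-treated tumor-bearing mice served as controls (C) for compound-treated mice (T). Reported figure is T divided by C.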

In the case of `COc1cc(NS(C)(=O)=O)ccc1Nc1c2ccccc2nc2ccccc12`, the T/C (dose: 0.25 mg/kg/injection, schedule: Q03HX016 (ip), vehicle: other) is reported as 118 % of control, the T/C (dose: 0.5 mg/kg/injection, schedule: Q01DX009 (sc), vehicle: other) is reported as 112 % of control and the T/C (dose: 1.0 mg/kg/injection, schedule: Q01DX009 (ip), vehicle: saline with Tween-80) is reported as 165 % of control. The T/C (dose: 1.0 mg/kg/injection, schedule: Q01DX009 (oral), vehicle: other) was 100 % of control, the T/C (dose: 1.0 mg/kg/injection, schedule: Q01DX009 (sc), vehicle: other) was 112 % of control and the T/C (dose: 1.0 mg/kg/injection, schedule: Q03HX008 (ip), vehicle: other) was 162 % of control. The T/C (dose: 1.0 mg/kg/injection, schedule: Q03HX016 (ip), vehicle: other) was 150 % of control, the T/C (dose: 1.0 mg/kg/injection, schedule: Q03HX024 (ip), vehicle: other) was 175 % of control and the T/C (dose: 2.0 mg/kg/injection, schedule: Q01DX001 (ip), vehicle: other) was 118 % of control. The T/C (dose: 2.0 mg/kg/injection, schedule: Q01DX001 (sc), vehicle: other) was 112 % of control, the T/C (dose: 2.0 mg/kg/injection, schedule: Q01DX009 (ip), vehicle: other) was 150 % of control and 161 % of control and the T/C (dose: 2.0 mg/kg/injection, schedule: Q01DX009 (oral), vehicle: other) was 100 % of control. For the same compound, the T/C (dose: 2.0 mg/kg/injection, schedule: Q03HX008 (ip), vehicle: other) was 181 % of control, the T/C (dose: 2.0 mg/kg/injection, schedule: Q03HX016 (ip), vehicle: other) was 181 % of control and the T/C (dose: 2.0 mg/kg/injection, schedule: Q04DX003 (ip), vehicle: other) was 120 % of control. For the same compound, the T/C (dose: 2.59 mg/kg/injection, schedule: Q04DX003 (ip), vehicle: other) was 124 % of control, the T/C (dose: 4.0 mg/kg/injection, schedule: Q01DX001 (sc), vehicle: other) was 112 % of control and the T/C (dose: 4.0 mg/kg/injection, schedule: Q01DX009 (ip), vehicle: other) was 193 % of control and 200 % of control. For the same compound, the T/C (dose: 4.0 mg/kg/injection, schedule: Q01DX009 (ip), vehicle: saline with Tween-80) was 151 % of control (2×) and 163 % of control, the T/C (dose: 4.0 mg/kg/injection, schedule: Q01DX009 (oral), vehicle: other) was 112 % of control and the T/C (dose: 4.0 mg/kg/injection, schedule: Q01DX009 (sc), vehicle: other) was 150 % of control. For the same compound, the T/C (dose: 8.0 mg/kg/injection, schedule: Q01DX001 (oral), vehicle: other) was 112 % of control, the T/C (dose: 8.0 mg/kg/injection, schedule: Q01DX001 (sc), vehicle: other) was 112 % of control and the T/C (dose: 8.0 mg/kg/injection, schedule: Q01DX009 (ip), vehicle: other) was 87 % of control and 88 % of control. The T/C (dose: 8.0 mg/kg/injection, schedule: Q01DX009 (oral), vehicle: other) was 150 % of control, the T/C (dose: 8.0 mg/kg/injection, schedule: Q01DX009 (sc), vehicle: other) was 112 % of control and the T/C (dose: 8.0 mg/kg/injection, schedule: Q04DX003 (ip), vehicle: other) was 181 % of control. The T/C (dose: 8.0 mg/kg/injection, schedule: Q08DX002 (ip), vehicle: other) was 156 % of control, the T/C (dose: 12.0 mg/kg/injection, schedule: Q04DX003 (ip), vehicle: other) was 186 % of control and the T/C (dose: 16.0 mg/kg/injection, schedule: Q01DX009 (ip), vehicle: other) was 90 % of control. The T/C (dose: 16.0 mg/kg/injection, schedule: Q01DX009 (oral), vehicle: other) was 87 % of control, the T/C (dose: 16.0 mg/kg/injection, schedule: Q01DX009 (sc), vehicle: other) was 87 % of control and the T/C (dose: 16.0 mg/kg/injection, schedule: Q04DX003 (ip), vehicle: other) was 150 % of control and 175 % of control. For the same compound, the T/C (dose: 16.0 mg/kg/injection, schedule: Q08DX002 (ip), vehicle: other) was 175 % of control, the T/C (dose: 20.0 mg/kg/injection, schedule: Q04DX003 (ip), vehicle: other) was 98 % of control and the T/C (dose: 32.0 mg/kg/injection, schedule: Q04DX003 (ip), vehicle: other) was 106 % of control. For the same compound, the T/C (dose: 64.0 mg/kg/injection, schedule: Q01DX001 (oral), vehicle: other) was 150 % of control, the T/C (dose: 64.0 mg/kg/injection, schedule: Q01DX001 (sc), vehicle: other) was 156 % of control and the T/C (dose: 128.0 mg/kg/injection, schedule: Q01DX001 (sc), vehicle: other) was 118 % of control.
